Assay results published in PubChem BioAssay (NCI).
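Method: 48-hour compound exposure of cells in 96-well plates, five concentrations, linear interpolation of endpoints. GI50 is the concentration that inhibits growth by half. TGI marks complete inhibition of growth.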

Tests used:
Assay in all cases: NCI tumour cell line growth inhibition, 48 h
[1] = system: HT29 colon
[2] = system: OVCAR-4 ovarian
[3] = system: LOX IMVI melanoma
[4] = system: MOLT-4 leukemia
[5] = system: NCI/ADR-RES ovarian
[6] = system: UACC-257 melanoma
[7] = system: UO-31 renal
[8] = system: MALME-3M melanoma
[9] = system: HCC-2998 colon
[10] = system: RXF 393 renal

Structure (SMILES): COc1ccc(CC(C#N)c2cc(OC)c(OC)c(OC)c2)cc1 (stereo not given)
- TGI [1]: 5.72 µM
- TGI [2]: > 100 µM
- TGI [3]: > 100 µM
- TGI [4]: > 100 µM
- TGI [5]: > 100 µM
- TGI [6]: > 100 µM
- TGI [7]: > 100 µM
- TGI [8]: > 100 µM

Structure (SMILES): CC(=O)OC1C/C(C)=C/[C@H](O)CC(C)/C=C/[C@@]2(C)CCC(C(C)(C)O)C12 (stereo not given in full)
- TGI [1]: > 100 µM
- TGI [2]: > 100 µM
- TGI [3]: > 100 µM
- TGI [4]: > 100 µM
- TGI [9]: > 100 µM
- TGI [6]: > 100 µM
- TGI [7]: > 100 µM
- TGI [8]: > 100 µM
- TGI [10]: > 100 µM

Structure (SMILES): COC(=O)C1CCC(N2C(=O)CCC2C(=O)OC)=N1 (stereo not given)
- TGI [1]: > 100 µM
- TGI [2]: > 100 µM
- TGI [3]: > 100 µM
- TGI [4]: > 100 µM
- TGI [9]: > 100 µM
- TGI [6]: > 100 µM
- TGI [7]: > 100 µM
- TGI [8]: > 100 µM

Structure (SMILES): CC(C)[C@H](O)C(=O)N[C@H]1Cc2ccc3c(c2)[C@]24C5=C(N=C(O5)[C@H](C(C)C)NC1=O)c1nc(Cl)c(o1)-c1c(Cl)[nH]c5cccc(c15)-c1cccc2c1N[C@H]4O3
- GI50 [1]: < 0.001 µM
- TGI [1]: 0.183 µM
- TGI [2]: > 10 µM
- TGI [4]: > 10 µM
- GI50 [9]: < 0.001 µM
- TGI [5]: 3.22 µM
- GI50 [6]: < 0.001 µM
- TGI [6]: 3.27 µM
- TGI [7]: > 10 µM
- TGI [8]: 0.0526 µM

Structure (SMILES): CCCCCC/C=C\CCCCCCCCCc1c(O)c(OC)cc(O)c1CN(C)C
- TGI [1]: 16.1 µM
- TGI [2]: 3.38 µM
- TGI [3]: > 100 µM
- TGI [4]: 4.5 µM
- TGI [5]: 37 µM
- TGI [6]: 29.3 µM
- TGI [7]: 15.5 µM

Structure (SMILES): Cc1cccc(NC(=O)Cc2nc3ccccc3s2)c1C
- TGI [1]: > 100 µM
- TGI [2]: > 100 µM
- TGI [3]: > 100 µM
- TGI [4]: > 100 µM
- TGI [9]: > 100 µM
- TGI [6]: > 100 µM
- TGI [7]: > 100 µM
- TGI [8]: > 100 µM
- TGI [10]: > 100 µM

Structure (SMILES): CCC(C)c1cnc(CC(C)C)c(=O)[nH]1 (stereo not given)
- TGI [1]: > 100 µM
- TGI [2]: > 100 µM
- TGI [3]: > 100 µM
- TGI [4]: > 100 µM
- TGI [9]: > 100 µM
- TGI [6]: > 100 µM
- TGI [7]: > 100 µM
- TGI [10]: > 100 µM

Structure (SMILES): C[C@@]1(CBr)C[C@@](C)(/C=C/Cl)[C@@H](Cl)C[C@H]1Cl
- TGI [1]: 22.4 µM
- TGI [2]: 24.6 µM
- TGI [3]: 23.7 µM
- TGI [4]: 19.4 µM
- TGI [9]: 29.8 µM
- TGI [6]: 24.2 µM
- TGI [7]: 29.1 µM
- TGI [8]: 30.4 µM
- TGI [10]: 27.9 µM

Structure (SMILES): CN(C(=O)C1CC1)C1C2CN3CCC(O2)C13 (stereo not given)
- TGI [1]: > 100 µM
- TGI [2]: > 100 µM
- TGI [3]: > 100 µM
- TGI [4]: > 100 µM
- TGI [9]: > 100 µM
- TGI [6]: > 100 µM
- TGI [7]: > 100 µM
- TGI [8]: > 100 µM
- TGI [10]: > 100 µM

Structure (SMILES): CC(=O)Oc1cc(OC(C)=O)c2cc3c(cc2c1OC(C)=O)C(=O)C1(CCCC1)C3=O
- TGI [1]: 30 µM
- TGI [2]: 33 µM
- TGI [3]: 33.5 µM
- TGI [4]: 15 µM
- TGI [9]: 37.2 µM
- TGI [7]: 29.8 µM
- TGI [8]: 33.6 µM
- TGI [10]: 31.3 µM

Structure (SMILES): CN(C)C(=S)/N=c1\ssc(=S)n1Cc1ccccn1
- TGI [1]: > 100 µM
- TGI [2]: > 52.3 µM
- TGI [3]: > 100 µM
- TGI [4]: > 100 µM
- TGI [9]: > 100 µM
- TGI [6]: > 100 µM
- TGI [7]: > 100 µM
- TGI [8]: 22.7 µM
- TGI [10]: 20 µM

Structure (SMILES): CN(C)CCC(=O)NCc1c2nc3ccccc3nc2n2ccccc12
- GI50 [1]: 35.9 µM
- TGI [1]: > 100 µM
- GI50 [3]: 21 µM
- TGI [3]: 40.4 µM
- GI50 [4]: 38.8 µM
- TGI [4]: > 100 µM
- GI50 [9]: 33.8 µM
- TGI [9]: > 100 µM
- GI50 [5]: 47.2 µM
- TGI [5]: > 100 µM
- GI50 [6]: 73.1 µM
- TGI [6]: > 100 µM
- GI50 [7]: 20.7 µM
- TGI [7]: > 100 µM
- GI50 [10]: 54.8 µM
- TGI [10]: > 100 µM
